Laboratory results published in EPA's ToxValDB 9.5.
Several values for one entry are separate records, joined by “and”; a condition that tells them apart may be missing. Equal values may be shown once.

How the values were obtained:
Rattus norvegicus [1] = conditions: oral, M/F
Rattus norvegicus [2] = conditions: M/F
Rattus norvegicus [3] = conditions: oral
Homo sapiens [4] = conditions: clinical, oral, capsule
Rattus norvegicus [5] = conditions: for LD50: acute
Cavia sp. = conditions: repeat dose other; inhalation
Canidae [6] = conditions: repeat dose other; inhalation; Dog Other
Homo sapiens [7] = conditions: clinical, oral
Rattus norvegicus [8] = conditions: oral; remark: listed apart in the source
Anas platyrhynchos = conditions: oral
Rattus norvegicus [9] = conditions: subchronic; duration: 12 weeks; oral; diet; Kidney: Toxicity + Liver: Toxicity
Homo sapiens [10] = conditions: clinical; oral; diet; M; rbc che depression
Oryctolagus sp. [11] = conditions: acute; duration: 1 days; inhalation; M; New Zealand; neurological
Homo sapiens [12] = conditions: clinical; duration: 56 days; oral; capsule; M; neurological
Cavia porcellus = conditions: repeat dose other; oral; Guinea Pig
Gallus gallus = conditions: repeat dose other; oral
Rattus norvegicus [13] = assay: LD0; higher = less toxic; conditions: acute
Canidae [14] = conditions: subchronic; duration: 7 weeks; oral; gavage; M/F; Beagle
Canidae [15] = conditions: chronic; duration: 26 weeks; oral; capsule; M/F; Beagle; gastrointestinal
Rattus norvegicus [16] = conditions: duration: 7 days, oral, M, Reduced proportion of time spent in open field central zones, increased immobility time in the open field, reduced proportion of time spent …
Canidae [17] = conditions: duration: 26 weeks, oral, capsule, M/F, Beagle, Liquid feces
Oryctolagus sp. [18] = conditions: developmental; duration: 12 days; oral; gavage; F; New Zealand; developmental
[19] = short-term, duration: 28 days, oral, diet, Fischer 344
[20] = reproduction developmental, M/F, Reduced body weight gain preceding pregnancy reduced body weight gain in offspring during weaning period

`CCOP(=S)(OCC)Oc1nc(Cl)c(Cl)cc1Cl` [Chlorpyrifos] showed an NOEL (Rattus norvegicus [1]; short-term, duration: 28 days, gavage, Wistar, Body Weight Changes: Weight gain decrease + Food Consumption: decrease + Blood Chemistry: T-Cho decrease TG decrease ALP increase Ch E …) of 0.1 mg/kg-day, an NOAEL (Rattus norvegicus [2]; chronic, duration: 2 years, oral, diet, Sherman Wistar, neurological) of 0.1 mg/kg-day and an NOEL (Rattus norvegicus [3]; Hershberger, duration: 10 days, gavage, Sprague-Dawley, inactive + Negative + Negative + anti-androgenic + negative) of 2 mg/kg-day. For the same compound, the LEL (Rattus norvegicus [3]; uterotrophic, duration: 56 days, Active) was 0.1 mg/kg-day and the NOEL (Homo sapiens [4]; duration: 20 days, Blood: Decreased cholinesterase activity) was 0.03 mg/kg-day.
Work on `C#C` [Ethyne] yielded an NOAEL (Rattus norvegicus [5]; repeat dose other, inhalation) of 852000 mg/m3, an NOAEL (Cavia sp.) of 852000 mg/m3 and an NOAEL (Canidae [6]) of 852000 mg/m3. It also gave an NOAEL (Mus musculus; repeat dose other, inhalation) of 852000 mg/m3.
With `Oc1ccc(O)cc1` [Hydroquinone] the NOEL (Rattus norvegicus [1]; subchronic, duration: 13 weeks, gavage, Fischer 344, Deaths + Clinical Observation: Tremors Convulsions + Body Weight Changes: decrease + Absolute Organ Weight: Liver increase + Relative Organ …) was 25 mg/kg-day and the NOAEL (Homo sapiens [7]; duration: 5 months, M/F, Hematologic, Urinary) was 4.3 mg/kg-day.
In the case of `ClC1C(Cl)C(Cl)C(Cl)C(Cl)C1Cl` (stereo not given) [Lindane], the NOAEL (Rattus norvegicus [8]; subchronic, F, liver and kidney toxicity) is reported as 0.33 mg/kg-day, the LOAEL (Rattus norvegicus [8]; subchronic, M, liver and kidney toxicity) is reported as 1.55 mg/kg-day and the NOAEL (Rattus norvegicus [2]; developmental, duration: 13 weeks, oral, drinking water, Sprague-Dawley, developmental) is reported as 7.6e-05 mg/kg-day. For the same compound, the LOAEL (Rattus norvegicus [2]; developmental, duration: 1 days, oral, gavage, Bor:spf, developmental) was 1 mg/kg-day, the LOAEL (Anas platyrhynchos) was 20 mg/kg-day and the NOAEL (Anas platyrhynchos) was 2 mg/kg-day. For the same compound, the NOAEL (Rattus norvegicus [9]) was 0.33 mg/kg-day.
With `CCOC(=O)CC(SP(=S)(OC)OC)C(=O)OCC` (stereo not given) [Malathion] the LEL (Homo sapiens [10]) was 0.34 mg/kg-day, the NOEL (Homo sapiens [10]) was 0.23 mg/kg-day and the NOAEL (Rattus norvegicus [2]; chronic, duration: 2 years, oral, diet, Fischer-344, neurological) was 2 mg/kg-day. It also gave an LOAEL (Rattus norvegicus [2]; subchronic, duration: 13 weeks, inhalation, whole body, Sprague-Dawley, respiratory) of 100 mg/m3, an NOAEL (Oryctolagus sp. [11]) of 65 mg/m3 and an NOAEL (Homo sapiens [12]) of 0.23 mg/kg-day. It also gave an NOEL (Homo sapiens [4]; duration: 47 days, Blood: Hematological effects) of 0.23 mg/kg-day.
Work on `O=[N+]([O-])[O-].[K+]` [Potassium nitrate] yielded an LOAEL (Cavia porcellus) of 1130 mg/kg-day and an NOAEL (Cavia porcellus) of 507 mg/kg-day.
For `[Cl-].[Rb+]` [Rubidium chloride (RbCl)], the LOAEL (Homo sapiens [7]; duration: 3 weeks, capsule, F) was 5.3 mg/kg-day.
`O.O.[Na+].[Na+].[O]=[Mo](=[O])([O-])[O-]` [Sodium molybdate (Na2MoO4) dihydrate] showed an LOAEL (Gallus gallus) of 35.3 mg/kg-day and an NOAEL (Gallus gallus) of 3.5 mg/kg-day.
In the case of `C[S-].[Na+]` [Sodium thiomethoxide], the LD50 (Rattus norvegicus [5]; oral, Sprague-Dawley) is reported as ≥ 75 mg/kg and ≤ 161 mg/kg, the LD50 (Rattus norvegicus [5]; oral, gavage, Sprague-Dawley) is reported as 109 mg/kg and ≥ 84 mg/kg and ≤ 146 mg/kg and the LD0 (Rattus norvegicus [13]; dermal, semiocclusive, Sprague-Dawley) is reported as at least 400 mg/kg.
`O=P(c1ccccc1)(c1ccccc1)c1ccccc1` [Triphenylphosphine oxide] gave an LOAEL (Canidae [14]) of 50 mg/kg-day.
Work on `CCCCC(CC)COC(=O)c1ccc(C(=O)OCC(CC)CCCC)c(C(=O)OCC(CC)CCCC)c1` (stereo not given) [Tris(2-ethylhexyl) trimellitate] yielded an LD50 (Rattus norvegicus [5]; oral, gavage) of over 3200 mg/kg, an LD50 (Rattus norvegicus [5]; oral, gavage, Crj:CD) of over 2000 mg/kg and an NOAEL (Rattus norvegicus [5]; reproduction developmental, duration: 20 days, oral, gavage, Crj:CD, generation: F1) of 1000 mg/kg-day. It also gave an NOAEL (Rattus norvegicus [5]; reproduction developmental, duration: 20 days, oral, gavage, F, Crj:CD) of 1000 mg/kg-day, an NOAEL (Rattus norvegicus [5]; reproduction developmental, duration: 20 days, oral, gavage, M, Crj:CD) of 100 mg/kg-day and an LOAEL (Rattus norvegicus [5]; [19]) of 650 mg/kg-day. For the same compound, the NOAEL (Rattus norvegicus [5]; [19]) was 184 mg/kg-day, the NOAEL (Rattus norvegicus [5]; short-term, duration: 28 days, oral, gavage, F, Crj:CD) was over 1000 mg/kg-day and the NOAEL (Rattus norvegicus [5]; short-term, duration: 28 days, oral, gavage, M, Crj:CD) was over 1000 mg/kg-day. It also gave an LD50 (Mus musculus; acute, oral, gavage) of over 3200 mg/kg and an LD0 (Rattus norvegicus [13]; inhalation, Crj:CD) of 2600 mg/m3.
`CC1(C)C(C=C(Cl)C(F)(F)F)C1C(=O)OC(C#N)c1cccc(Oc2ccccc2)c1` (stereo not drawn) [alpha-Cyhalothrin] showed an LEL (Rattus norvegicus [8]; [20]) of 1.5 mg/kg-day, an NOEL (Rattus norvegicus [8]; [20]) of 0.5 mg/kg-day and an NOAEL (Canidae [15]) of 1 mg/kg-day. It also gave an NOEL (Rattus norvegicus [16]; neurotoxicity) of 1 mg/kg-day, an NOEL (Rattus norvegicus [16]; short-term) of 1 mg/kg-day and an LOEL (Canidae [17]; chronic) of 1 mg/kg-day. It also gave an LOEL (Canidae [17]) of 1 mg/kg-day.
Compound `Cc1ccc(O)cc1` [p-Cresol] has an NOAEL (Rattus norvegicus [1]; short-term, duration: 28 days, diet, Fischer 344, Clinical Observation: Hunched posture Rough hair coat + Body Weight Changes: Mean body weight decrease + Food Consumption: decrease + …) of 1000 ppm, an NOAEL (Rattus norvegicus [1]; subchronic, duration: 13 weeks, gavage, Sprague-Dawley, Deaths + Clinical Observation: Lethargy Tremors Convulsions Coma: + Body Weight Changes: Mean body weight decrease, Body weight gain …) of 50 mg/kg-day and an NOAEL (Oryctolagus sp. [18]) of 5 mg/kg-day.
